Reference: patent US20220409727A1, “Metal Complexes Bearing Bisstyryl-Bipyridine Ligand and Their Use as Photosensitizer Agent in One and Two-Photon Photodynamic Therapy” (Paris Sciences et Lettres, priority 2019, published 2022)
Like-named read-outs stand apart in the source and are kept apart here.

What was measured:
[1] = CH3CN; cited from earlier work
[2] = Singlet oxygen measurement, indirect evaluation (RNO absorbance); assay type: physicochemical; details: indirect
Method: For the measurement in CH3CN: The samples were prepared in an air-saturated CH3CN solution containing the complex with an absorbance of 0.2 at the irradiation wavelength, N,N-dimethyl-4-nitrosoaniline aniline (RNO, 24 μM) and imidazole (12 mM). For the measurement in PBS buffer: The samples were prepared in an air-saturated PBS solution containing the complex with an absorbance of 0.1 at the irradiation wavelength, N,N-dimethyl-4-nitrosoaniline aniline (RNO, 20 μM) and histidine (10 mM). The samples were irradiated on 96 well plates with an Atlas Photonics LUMOS BIO irradiator for different times. The absorbance of the samples was measured during these time intervals with a SpectraMax M2 Microplate Reader (Molecular Devices). The difference in absorbance (A0−A) at 420 nm for the CH3CN solution or at 440 nm a PBS buffer solution was calculated and plotted against the irradiation times. From the plot the slope of the linear regression was calculated as well as the absorbance correction factor determined. The singlet oxygen quantum yields were calculated using the same formulas as used for the direct evaluation.

[3] = tested on: non-cancerous retinal pigment epithelium (RPE-1) cells; experiment: (Photo-)cytotoxicity on 2D cell monolayers, resazurin assay, RPE-1;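 further: cells exposed to compound 4 h, medium exchanged, then irradiated or kept dark, 44 h further growth, viability by resorufin fluorescence (ex 540 nm, em 590 nm)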
Method: (§3) The human glioblastoma astrocytoma (U373) cell line was cultured in MEM medium supplemented with 10% FBS, 1% NEAA (non-essential amino-acids) and 1% penicillin/streptomycin. […] The human retinal epithelial cells (RPE-1, non-cancerous cells immortalized with hTERT) were cultured in DMEM-F12 medium supplemented with 10% FBS and 1% penicillin/streptomycin. All cell lines were obtained from the American Type Culture Collection (ATCC) and cultured at 37° C. and 5% CO2. Before an experiment, the cells were passaged three times.
(§4) The cytotoxicity of the compounds was assessed by measuring cell viability using a fluorometric resazurin assay. The cultivated cells were seeded in triplicates in 96 well plates with a density of 4000 cells per well in 100 μL of media. After 24 h, the medium was removed and the cells were treated with increasing concentrations of the compound diluted in cell media achieving a total volume of 200 μL. The cells were incubated with the compound for 4 h. After this time, the media was removed and replaced with 200 μL of fresh medium. For the phototoxicity studies, the cells were exposed to light with an Atlas Photonics LUMOS BIO irradiator. Each well was constantly illuminated with either a 480 nm or 540 nm irradiation. During this time, the temperature was maintained constantly at 37° C. The cells were grown in the incubator for additional 44 h. For the determination of the dark cytotoxicity, the cells were not irradiated and after the medium exchange directly incubated for 44 h. After this time, the medium was replaced with fresh medium containing resazurin with a final concentration of 0.2 mg/mL. After 4 h incubation, the amount of the fluorescent product resorufin was determined upon excitation at 540 nm and measurement its emission at 590 nm using a SpectraMax M2 Microplate Reader (Molecular Devices).
(§5) The obtained data was analyzed with the GraphPad Prism software.

[4] = tested on: mouse colon carcinoma (CT-26) cells
[5] = tested on: human glioblastoma astrocytoma (U373) cells; experiment: (Photo-)cytotoxicity on 2D cell monolayers, resazurin assay, U373; details: for IC50: compounds 1-3 as chloride salts
Method: as §3, §4, §5

[6] = tested on: human glioblastoma astrocytoma (U373) cells
Method: as §3, §4, §5

[7] = Luminescence lifetime measurements; assay type: physicochemical; details: excitation at 355 nm
Method: (§1) For the determination of the lifetimes, the samples were prepared in an air saturated and in a degassed CH3CN solution with an absorbance of 0.2 at 355 nm. This solution was irradiated in fluorescence quartz cuvettes (width 1 cm) using a NT342B Nd-YAG pumped optical parametric oscillator (Ekspla) at 355 nm. The emission signal was focused and collected at right angle to the excitation pathway and directed to a Princeton Instruments Acton SP-2300i monochromator. As a detector a R928 photomultiplier tube (Hamamatsu) has been used.

[8] = Luminescence quantum yield measurements; assay type: physicochemical; set-up: key: fraction, relative to [Ru(bipy)3]Cl2 reference in CH3CN (Φem=5.9%); details: CH3CN, room temperature, excitation at 355 nm
Method: as §1, with “luminescence quantum yield,” for “lifetimes,”, “an” for “an air saturated and in a degassed”, “0.1” for “0.2”, “XPI-Max 4 CCD camera (Princeton Instruments)” for “R928 photomultiplier tube (Hamamatsu)”, “used. The luminescence quantum yields were determined by comparison with the reference [Ru(bipy)3]Cl2 in CH3CN (Φem=5.9%) (Nakamaru, K., 1982) applying the following formula:” for “used.”
Φem, sample=Φem, reference*(Freference/Fsample)*(Isample/Ireference)*(nsample/nreference)^2
Φem=luminescence quantum yield, F=fraction of light absorbed, I=integrated emission intensities, n=refractive index, A=absorbance of the sample at irradiation wavelength.

[9] = Emission measurement in CH3CN; assay type: physicochemical; details: room temperature, excitation at 355 nm
Method: The absorption of the samples was measured with a SpectraMax M2 Spectrometer (Molecular Devices). The emission was measured by irradiation of the sample in fluorescence quartz cuvettes (width 1 cm) using a NT342B Nd-YAG pumped optical parametric oscillator (Ekspla) at 355 nm. Luminescence was focused and collected at right angle to the excitation pathway and directed to a Princeton Instruments Acton SP-2300i monochromator. As a detector, a XPI-Max 4 CCD camera (Princeton Instruments) has been used.

[10] = tested on: human cervical carcinoma (HeLa) cells; experiment: (Photo-)cytotoxicity on 2D cell monolayers, resazurin assay, HeLa; assay type: cell-based
Text: Before an experiment, the cells were passaged three times.

[11] = Singlet oxygen measurement, direct evaluation (1O2 luminescence at 1270 nm); assay type: physicochemical
Method: The samples were prepared in an air saturated CH3CN or D2O solution with an absorbance of 0.2 at 450 nm. This solution was irradiated in fluorescence quartz cuvettes (width 1 cm) using a mounted M450LP1 LED (Thorlabs) whose irradiation, centered at 450 nm, has been focused with aspheric condenser lenses. The intensity of the irradiation has been varied using a T-Cube LED Driver (Thorlabs) and measured with an optical power and energy meter. The emission signal was focused and collected at right angle to the excitation pathway and directed to a Princeton Instruments Acton SP-2300i monochromator. A longpass glass filter was placed in front of the monochromator entrance slit to cut off light at wavelengths shorter than 850 nm. As a detector an EO-817L IR-sensitive liquid nitrogen cooled germanium diode detector (North Coast Scientific Corp.) has been used. The singlet oxygen luminesce at 1270 nm was measured by recording spectra from 1100 to 1400 nm. For the data analysis, the singlet oxygen luminescence peaks at different irradiation intensities were integrated. The resulting areas were plotted against the percentage of the irradiation intensity and the slope of the linear regression calculated. The absorbance of the sample was corrected with an absorbance correction factor. As reference for the measurement Rose Bengal (Φ=76%) (Kochevar, I. E. and Redmond, R. W., 2000) was used and the singlet oxygen quantum yields were calculated using the following formula:
Φsample=Φreference*(Ssample/Sreference)*(Ireference/Isample)
Φ=singlet oxygen quantum yield, S=slope of the linear regression of the plot of the areas of the singlet oxygen luminescence peaks against the irradiation intensity, I=absorbance correction factor, […] of the irradiation source, A=absorbance of the sample at irradiation wavelength.

[12] = tested on: mouse colon carcinoma (CT-26) cells; experiment: (Photo-)cytotoxicity on 2D cell monolayers, resazurin assay, CT-26; details: for IC50: compounds 1-3 as chloride salts
[13] = tested on: HeLa MCTS; experiment: 3D multicellular tumor spheroids (MCTS) growth inhibition assay; assay type: cell-based, human
Method: (§2) autoclave. The hot emulsion was transferred into wells (50 μL per well) of a 96 cell culture well plate. The plates were exposed for 3 h to UV irradiation to ensure the sterility and allow the agarose solution to cool down. After this time, the agarose was overlayed with a HeLa cell suspension at a density of 3000 cells per well in 150 μL of media. The MCTS were cultivated and maintained at 37° C. in a cell culture incubator at 37° C. with 5% CO2 atmosphere. The culture media was replaced every two days. Within two-three days MCTs were formed from the cell suspension. The formation as well as integrity, diameter and volume of the MCTs was monitored by an Axio Observer Z1 (Carl Zeiss) phase contrast microscope. The volume was calculated using the following formula: V=4/3πr^3. The luminescence images along the z-axis were captured by a one-(λex=458 nm, λem=600-750 nm) or two-photon (λex=800 nm, λem=600-750 nm) excitation in the z-stack mode with a an LSM 880 (Carl Zeiss) laser scanning confocal microscope equipped with Argon and a Coherent Chameleon 2-Photon laser and a GaAsP detector.
MCTS were treated with the corresponding compounds (20 μM 1-7, 20 μM tetraphenylporphyrin H2TPP, 10 μM cisplatin, 30 μM cisplatin, 2% DMSO, v %) by replacing 50% of the media with drug supplemented media in the dark for three days. After this time, the MCTS were exposed to a two-photon irradiation (800 nm, 10 J/cm^2) with a section interval of 5 μm using a LSM 880 (Carl Zeiss) laser scanning confocal microscope equipped with a Coherent Chameleon 2-Photon laser. The cell culture media was replaced every two days. The integrity and diameter of the MCTs was monitored with an Axio Observer Z1 (Carl Zeiss) phase contrast microscope every 24 h.

[14] = tested on: HeLa MCTS; experiment: (Photo-)cytotoxicity on 3D multicellular tumor spheroids (ATP, CellTiter-Glo 3D); assay type: cell-based, human; details: dark, 12 h incubation, read-out: IC50 dark
Method: as §2
The cytotoxicity of the compounds in 3D multicellular tumor spheroids (MCTS) was assessed by measurement of the ATP concentration. MCTS were treated with increasing concentrations of the compound (2% DMSO, v %) by replacing 50% of the media with drug supplemented media and incubation for 12 h. After this time, the MCTS were divided in three identical groups. The first group was strictly kept in the dark. The second group was exposed to a one-photon irradiation (500 nm, 10 J/cm^2) using a LED and the third group was exposed to a two-photon irradiation (800 nm, 10 J/cm^2) with a section interval of 5 μm using a LSM 880 (Carl Zeiss, Germany) laser scanning confocal microscope equipped with a Coherent Chameleon 2-Photon laser. After the irradiation, all groups were incubated additional 48 h. The ATP concertation was measured using a CellTiter-Glo 3D Cell Viability kit (Promega) by measuring the generated chemiluminescence with an infinite M200 PRO (Tecan) plate reader.

[15] = reference for the measurement; cited from earlier work
[16] = read-out: IC50 dark, U373, dark, 4 h incubation
[17] = dark, 4 h incubation, compounds 1-3 as chloride salts, read-out: IC50 dark
[18] = read-out: IC50 dark, CT-26, dark, 4 h incubation

In the case of `[Cl-].[Cl-].[Ru+2].c1ccc(-c2ccccn2)nc1.c1ccc(-c2ccccn2)nc1.c1ccc(-c2ccccn2)nc1` [[Ru(bipy)3]Cl2], the “Φem (luminescence quantum yield of the reference)” value [1] is listed as 5.9%.
For `CN(C)c1ccc(/C=C/c2ccnc(-c3cc(/C=C/c4ccc(N(C)C)cc4)ccn3)c2)cc1.CN(C)c1ccc(/C=C/c2ccnc(-c3cc(/C=C/c4ccc(N(C)C)cc4)ccn3)c2)cc1.CN(C)c1ccc(/C=C/c2ccnc(-c3cc(/C=C/c4ccc(N(C)C)cc4)ccn3)c2)cc1.F[P-](F)(F)(F)(F)F.F[P-](F)(F)(F)(F)F.[Ru+2]` [Compound 2, [Ru((E,E′)-4,4′-Bis[p-(N,N-dimethylamino)styryl]-2,2′-bipyridine)3][PF6]2], the “Singlet oxygen quantum yield, indirect 450 nm CH3CN” value ([2]; 450 nm, CH3CN) was 25%, the “Singlet oxygen quantum yield, indirect 450 nm PBS” value ([2]; 450 nm, PBS) was 3% and the “Singlet oxygen quantum yield, indirect 540 nm CH3CN” value ([2]; 540 nm, CH3CN) was 16%. The “Singlet oxygen quantum yield, indirect 540 nm PBS” value ([2]; 540 nm, PBS) was 1%, the “PI (480 nm)” value ([3]; RPE-1, dark vs 480 nm (10 min, 3.1 J/cm^2)) was greater than 2.6 and the “PI (540 nm)” value ([3]; RPE-1, dark vs 540 nm (40 min, 9.5 J/cm^2)) was greater than 2.0. The IC50 [4] was 42.6 ± 3.8 µM, the “PI (480 nm)” value ([5]; U373, dark vs 480 nm (10 min, 3.1 J/cm^2)) was greater than 2.0 and the “PI (540 nm)” value ([5]; U373, dark vs 540 nm (40 min, 9.5 J/cm^2)) was greater than 1.6. The IC50 ([5]; read-out: IC50 480 nm (10 min, 3.1 J/cm^2), U373, irradiation 480 nm (10 min, 3.1 J/cm^2)) was 49.1 ± 6 µM, the IC50 [5, 16] was greater than 100 µM and the IC50 [6] was 61.4 ± 5.6 µM. For the same molecule, the “τ/ns air (Lifetime)” value ([7]; air saturated CH3CN) was 48 ns, the “τ/ns degassed (Lifetime)” value ([7]; degassed CH3CN) was 222 ns and the “ϕem (Luminescence Quantum Yield)” value [8] was less than 0.001. For the same molecule, the “λem/nm (Emission maximum)” value [9] was 709 nm, the “PI (480 nm)” value ([10]; dark vs 480 nm (10 min, 3.1 J/cm^2)) was greater than 3.4 and the “PI (540 nm)” value ([10]; dark vs 540 nm (40 min, 9.5 J/cm^2)) was greater than 1.9. It also gave an IC50 [10, 17] greater than 100 µM, an IC50 ([10]; read-out: IC50 480 nm (10 min, 3.1 J/cm^2), irradiation 480 nm (10 min, 3.1 J/cm^2), compounds 1-3 as chloride salts) of 29.4 ± 8.3 µM and an IC50 ([10]; read-out: IC50 540 nm (40 min, 9.5 J/cm^2), irradiation 540 nm (40 min, 9.5 J/cm^2), compounds 1-3 as chloride salts) of 52.3 ± 6.1 µM. For the same molecule, the “Singlet oxygen quantum yield, direct 450 nm CH3CN” value [11] was 18%, the “PI (480 nm)” value ([12]; CT-26, dark vs 480 nm (10 min, 3.1 J/cm^2)) was greater than 2.3 and the “PI (540 nm)” value ([12]; CT-26, dark vs 540 nm (40 min, 9.5 J/cm^2)) was greater than 1.6. It also gave an IC50 ([12]; read-out: IC50 540 nm (40 min, 9.5 J/cm^2), CT-26, irradiation 540 nm (40 min, 9.5 J/cm^2)) of 62.5 ± 8.2 µM and an IC50 [12, 18] greater than 100 µM.
In the case of `N.N.[Cl][Pt][Cl]` [cisplatin, reference compound], the IC50 [5, 16] is reported as 17.6 ± 1.7 µM, the “effect on the tumours growth (MCTS volume) at 10 μM” value ([13]; 10 μM) is reported as “weak effect” and the “effect on the tumours growth (MCTS volume) at 30 μM” value ([13]; 30 μM) is reported as “significantly decreasing the volume”. For the same molecule, the IC50 [10, 17] was 10.5 ± 0.8 µM, the IC50 [12, 18] was 6.5 ± 1.1 µM and the IC50 [14] was 18.6 ± 1.3 µM.
In the case of `O=C([O-])c1c(Cl)c(Cl)c(Cl)c(Cl)c1-c1c2cc(I)c(=O)c(I)c-2oc2c(I)c([O-])c(I)cc12.[Na+].[Na+]` [Rose Bengal], the “Φ (singlet oxygen quantum yield of the reference)” value [15] is given as 76%.
